Test [1] deals with MCF7. The experiment in a line: Antiproliferative activity against human MCF7 cells after 48 hrs by MTT assay. The format is functional, cell-based. The note with it: MCF7, 48 h.
In a further test the test system is SW480. As to the kind of experiment: Antiproliferative activity against human SW480 cells after 48 hrs by MTT assay. Type of test: functional, cell-based. The settings on record: SW480, 48 h. (In general: Tetrazolium dyes change colour on reduction, which living cells bring about.)
The subject of test [2] is A549. As to the kind of experiment: Antiproliferative activity against human A549 cells after 48 hrs by MTT assay. The format is functional, cell-based. The settings on record: A549, 48 h.
The test system of test [3] is A549. As to the kind of experiment: Induction of apoptosis in human A549 cells assessed as early apoptotic cells at after 48 hrs by annexin V-FITC and propidium iodide staining-based flow cytometry (reference value: 0.720 %). The format is functional. For orientation: A flow cytometer gives signals particle by particle.
Test [4] concerns MCF7. As to the kind of experiment: Cell cycle arrest in human MCF7 cells assessed as accumulation at G1 phase at 5 uM after 48 hrs by flow cytometry (Rvb =52.82 %). The format is functional.
Test [5] relates to A549. As to the kind of experiment: Induction of apoptosis in human A549 cells assessed as late necrotic cells at after 48 hrs by annexin V-FITC and propidium iodide staining-based flow cytometry (reference value: 0.920 %). The format is functional.
The test system of test [6] is A549. The experiment in a line: Induction of apoptosis in human A549 cells assessed as late apoptotic cells at after 48 hrs by annexin V-FITC and propidium iodide staining-based flow cytometry (reference value: 2.87 %). Type of test: functional.
In test [7] the test system is MCF7. As to the kind of experiment: Cell cycle arrest in human MCF7 cells assessed as accumulation at S phase at 5 uM after 48 hrs by flow cytometry (Rvb =31.40 %). Type of test: functional.
Test [8] deals with MCF7. As to the kind of experiment: Cell cycle arrest in human MCF7 cells assessed as accumulation at G2/M phase at 5 uM after 48 hrs by flow cytometry (Rvb =15.78 %). The format is functional.
The test system of test [9] is A549. The experiment in a line: Induction of apoptosis in human A549 cells assessed as viable cells at after 48 hrs by annexin V-FITC and propidium iodide staining-based flow cytometry (reference value: 95.5 %). The format is functional.

The structures appear in SMILES notation.

For orientation: IC50 means the point on the concentration scale where inhibition reaches its midpoint. High values mean weaker potency in that assay, low ones greater potency in that assay.

In the case of `COc1cccc2c1C(=O)c1c(O)c3c(c(O)c1C2=O)C[C@@](O)(C(=O)CO)C[C@@H]3O[C@H]1C[C@H](N)[C@H](O)[C@H](C)O1` [DOXORUBICIN], the IC50 in the test with MCF7 [1] was found to be 3.51 µM; in the test with SW480, 2.43 µM; in the test with A549 [2], 1.65 µM.

As for `COC(=O)c1ccc(OCc2cn(-c3cc(=O)oc4ccc(Br)cc34)nn2)cc1`, the results for the concentration for half-maximal inhibition (IC50) in the test on MCF7 [1], in the test on SW480 and with A549 [2] were 3.13 µM, 3.62 µM and 0.66 µM, respectively.

`COc1ccc(CN2CCN(c3cc(=O)oc4ccccc34)CC2)cc1`: the IC50 in the test on MCF7 [1], in the test with SW480 and in the test with A549 [2] was greater than 50 µM throughout.

As to `COc1ccc(CN2CCN(c3cc(=O)oc4ccccc34)CC2)cc1OC`, the IC50 in the test with MCF7 [1], in the test on SW480 and in the test on A549 [2] was greater than 50 µM each time.

Consider `CS(=O)(=O)Oc1ccc2c(-n3cc(COc4ccccc4)nn3)cc(=O)oc2c1`, for which the 50% inhibitory concentration (IC50) in the test on MCF7 [1] was 45.8 µM; in the test on SW480 it was 10.7 µM; with A549 [2] it was 9.14 µM.

Turning to `O=c1cc(-n2cc(COc3ccccc3Br)nn2)c2cc(Br)ccc2o1`, the values for the concentration for half-maximal inhibition (IC50) in the test on MCF7 [1], in the test on SW480 and with A549 [2] were 28.9 µM, 20.1 µM and 8.43 µM, respectively.

On to `O=c1cc(-n2cc(-c3ccccc3)nn2)c2cc(Br)ccc2o1`, for which the IC50 in the test with MCF7 [1] came to 9.45 µM; with SW480, 6.66 µM; with A549 [2], 11.2 µM.

Regarding `O=c1cc(-n2cc(COc3ccccc3)nn2)c2ccc(OS(=O)(=O)c3ccc(F)cc3)cc2o1`, the IC50 in the test with MCF7 [1], with SW480 and in the test on A549 [2] was greater than 50 µM in each case.

In the test with MCF7 [1], `CCOC(=O)c1ccc(OCc2cn(-c3c([N+](=O)[O-])cnc4ccc(Br)cc34)nn2)cc1` yielded a concentration for half-maximal inhibition (IC50) of 13.9 µM.

Turning to `O=c1cc(-n2cc(COc3ccc(F)cc3)nn2)c2cc(O)ccc2o1`, the figures for the IC50 in the test on MCF7 [1], in the test with SW480 and with A549 [2] were 4.62 µM, 2.72 µM and 2.01 µM, respectively.

As to `O=c1cc(N2CCN(Cc3ccccc3)CC2)c2ccccc2o1`, the IC50 in the test with MCF7 [1], in the test on SW480 and in the test with A549 [2] was greater than 50 µM in each case.

As for `O=c1cc(-n2cc(COc3ccccc3)nn2)c2cc(O)ccc2o1`, the IC50 in the test with MCF7 [1], in the test on SW480 and with A549 [2] was greater than 50 µM each time.

With `COc1ccc(OCCN2CCN(c3cc(=O)oc4ccccc34)CC2)cc1`, the IC50 came out at 24.2 µM with MCF7 [1], 35 µM in the test with SW480 and 21.6 µM with A549 [2].

As for `O=c1cc(-n2cc(COc3ccc(Br)cc3)nn2)c2cc(Br)ccc2o1`, the IC50 was determined as 1.92 µM with MCF7 [1], 1.31 µM with SW480 and 24.5 µM with A549 [2].

Regarding `O=c1cc(N2CCN(CCOc3ccc(F)cc3)CC2)c2ccccc2o1`, the IC50 in the test with MCF7 [1] is greater than 50 µM; in the test on SW480, 24 µM; in the test on A549 [2] it was 11.9 µM.

As to `O=c1cc(N2CCN(Cc3ccccc3O)CC2)c2ccccc2o1`, the IC50 in the test on MCF7 [1], in the test on SW480 and with A549 [2] was greater than 50 µM in each case.

On to `O=c1cc(-n2cc(COc3ccnc4ccc(Br)cc34)nn2)c2cc(Br)ccc2o1`, for which the concentration for half-maximal inhibition (IC50) in the test with MCF7 [1] was 41.6 µM; in the test on SW480 it was 16.9 µM; in the test with A549 [2] it was 13.3 µM.

In the case of `CCc1ccc(OCc2cn(-c3cc(=O)oc4ccc(Br)cc34)nn2)cc1`, the IC50 with MCF7 [1] was 12.7 µM; in the test on SW480, 10.8 µM; in the test with A549 [2], 11.6 µM.

Take `O=c1cc(-n2cc(COc3ccccc3)nn2)c2cc(Br)ccc2o1`: the IC50 was 1.72 µM in the test on MCF7 [1], 4.99 µM in the test on SW480 and 12.3 µM in the test on A549 [2].

Turning to `O=[N+]([O-])c1cnc2ccc(Br)cc2c1-n1cc(CSc2ccccc2)nn1`, in the test with MCF7 [1], the IC50 is 22.7 µM.

`O=c1cc(-n2cc(COc3ccccc3)nn2)c2cc(OCCN3CCOCC3)ccc2o1`: the IC50 with MCF7 [1], with SW480 and with A549 [2] was greater than 50 µM throughout.

For `O=c1cc(-n2cc(CNc3ccccc3)nn2)c2cc(Br)ccc2o1`, the IC50 is greater than 50 µM in the test on MCF7 [1], 18.4 µM in the test on SW480 and 13.2 µM in the test on A549 [2].

For the molecule `COc1ccc2oc(=O)cc(-n3cc(COc4ccc(F)cc4)nn3)c2c1`, the figures for the half-inhibitory concentration (IC50) with MCF7 [1], with SW480 and with A549 [2] were 8.56 µM, 25.9 µM and 3.15 µM, respectively.

Take `O=c1cc(-n2cc(COc3ccc(C(F)(F)F)cc3)nn2)c2cc(Br)ccc2o1`: the IC50 in the test with MCF7 [1] worked out at 11.4 µM; in the test on SW480 it was 3.09 µM; in the test on A549 [2], 1.62 µM.

Consider `O=c1cc(N2CCN(Cc3cccc(O)c3)CC2)c2ccccc2o1`, for which the concentration for half-maximal inhibition (IC50) with MCF7 [1], in the test with SW480 and in the test on A549 [2] was greater than 50 µM throughout.

In the case of `O=[N+]([O-])c1cnc2ccc(Br)cc2c1-n1cc(COc2ccccc2)nn1`, the IC50 with MCF7 [1] stood at 7.69 µM.

On to `O=c1cc(N2CCN(Cc3ccc(F)cc3)CC2)c2ccccc2o1`, for which the IC50 in the test on MCF7 [1], with SW480 and in the test on A549 [2] was greater than 50 µM each time.

Consider `COc1ccc2c(-n3cc(COc4ccc(F)cc4)nn3)cc(=O)oc2c1`, for which the Activity in the test with A549 [3] amounted to 19.5%; with MCF7 [4], 3.06%; in the test with A549 [5] it was 12.3%; with A549 [6], 15.9%; with MCF7 [7], 12.73%; with MCF7 [8], 84.21%. Moreover, the Activity in the test with A549 [9] turned out to be 52.3%. Further, the results for the IC50 with MCF7 [1], in the test with SW480 and in the test on A549 [2] were 5.89 µM, 1.99 µM and 0.52 µM, respectively.

On to `O=c1cc(-n2cc(COc3ccc(F)cc3)nn2)c2ccccc2o1`, for which the results for the IC50 in the test on MCF7 [1], with SW480 and in the test on A549 [2] were 5.84 µM, 3.82 µM and 0.68 µM, respectively.

`O=c1cc(-n2cc(COc3ccc(F)cc3)nn2)c2cc(Br)ccc2o1`: the 50% inhibitory concentration (IC50) worked out at 7 µM in the test with MCF7 [1], 1.77 µM in the test on SW480 and 0.85 µM with A549 [2].

Consider `O=c1cc(-n2cc(COc3cccnc3)nn2)c2cc(Br)ccc2o1`, for which the IC50 was determined as 39.8 µM in the test with MCF7 [1], 39.8 µM in the test with SW480 and 24.8 µM with A549 [2].

As to `Nc1ccc(OCc2cn(-c3cc(=O)oc4ccc(Br)cc34)nn2)cc1`, the results for the half-maximal inhibitory concentration (IC50) in the test with MCF7 [1], with SW480 and in the test on A549 [2] were 2.04 µM, 2.09 µM and 11.8 µM, respectively.

`COC(=O)c1ccccc1OCc1cn(-c2cc(=O)oc3ccc(Br)cc23)nn1`: the IC50 in the test on MCF7 [1] worked out at 34.1 µM; in the test with SW480, 20.2 µM; with A549 [2] it was 5.25 µM.

With `COc1cc(CN2CCN(c3cc(=O)oc4ccccc34)CC2)ccc1O`, the IC50 in the test on MCF7 [1], in the test with SW480 and with A549 [2] was greater than 50 µM throughout.

Turning to `O=c1cc(-n2cc(CSc3ccccc3)nn2)c2cc(Br)ccc2o1`, the values for the IC50 with MCF7 [1], in the test on SW480 and with A549 [2] were 36.8 µM, 15.4 µM and 3.51 µM, respectively.

In the case of `O=c1cc(-n2cc(COc3ccccc3O)nn2)c2cc(Br)ccc2o1`, the 50% inhibitory concentration (IC50) in the test with MCF7 [1] came out at 24.8 µM; with SW480 it was 19.1 µM; in the test on A549 [2], 7.94 µM.

The values are drawn from ChEMBL document CHEMBL3112525, “Synthesis and biological evaluation of 4-(1,2,3-triazol-1-yl)coumarin derivatives as potential antitumor agents” (Bioorg Med Chem Lett, 2014).
